Source: patent US8435978B2, “Substituted sulfonamide compounds” (Gruenenthal GmbH, priority 2006, dated 2013)
Structures can show the parent of a compound that is named as a salt. Blank lines part the entries; values can stand above or below the molecule they belong to.

Legend:
[1] = target: T1, human B1R receptor (Homo sapiens, UniProt P46663); experiment: Functional study on the bradykinin receptor 1 (B1R), FLIPR Ca2+ assay, hB1R cells; type: cell-based; details: CHO-K1, test substance 10 μM, agonist Lys-Des-Arg9-bradykinin 0.5 nM, % inhibition compared with the maximum achievable inhibition, read-out: B1R Antagonism, human [10 μM] % Inhibition
T1 construct: host or cells: CHO K1 cells (Chinese hamster ovary), stably transfected
T1 sequence (P46663 1-353): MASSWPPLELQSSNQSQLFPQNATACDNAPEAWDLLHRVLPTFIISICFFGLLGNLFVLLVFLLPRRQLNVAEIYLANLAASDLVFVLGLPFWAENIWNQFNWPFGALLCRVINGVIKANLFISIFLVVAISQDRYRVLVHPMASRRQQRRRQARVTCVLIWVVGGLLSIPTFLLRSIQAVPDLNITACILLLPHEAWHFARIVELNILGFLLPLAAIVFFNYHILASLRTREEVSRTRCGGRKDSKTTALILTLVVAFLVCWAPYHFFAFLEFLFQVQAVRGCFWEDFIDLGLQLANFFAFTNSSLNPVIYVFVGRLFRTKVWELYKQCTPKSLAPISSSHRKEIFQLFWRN
Procedure, shortened: (§1)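 FLIPR Ca2+ assay in recombinant CHO K1 cells (human or rat B1R), Fluo-4 dye; 10 μM compound, 10 min, then EC-level agonist per species (0.5 nM Lys-Des-Arg9-BK human / 100 nM Des-Arg9-BK rat). Output: % inhibition vs maximum.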

[2] = target: T2, B1R receptor of the rat (Rattus norvegicus, UniProt P97583); experiment: Functional study on the bradykinin receptor 1 (B1R), FLIPR Ca2+ assay, rB1R cells; type: cell-based; details: CHO-K1, test substance 10 μM, agonist Des-Arg9-bradykinin 100 nM, % inhibition compared with the maximum achievable inhibition, read-out: B1R Antagonism, rat [10 μM] % Inhibition
T2 construct: host or cells: CHO K1 cells (Chinese hamster ovary), stably transfected
T2 sequence (P97583 1-337): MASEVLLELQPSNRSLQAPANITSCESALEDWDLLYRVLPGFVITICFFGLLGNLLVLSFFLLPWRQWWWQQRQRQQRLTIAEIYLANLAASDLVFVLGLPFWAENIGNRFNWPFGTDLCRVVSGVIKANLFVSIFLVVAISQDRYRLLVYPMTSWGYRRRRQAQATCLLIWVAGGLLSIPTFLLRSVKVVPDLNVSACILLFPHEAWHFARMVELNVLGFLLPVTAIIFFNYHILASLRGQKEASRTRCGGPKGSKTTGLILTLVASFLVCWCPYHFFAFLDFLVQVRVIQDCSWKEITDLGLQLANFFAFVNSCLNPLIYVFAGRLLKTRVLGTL
Procedure, shortened: as §1

Structure (SMILES): COc1cc(C)c(S(=O)(=O)N2CCCC2COCC(=O)N2CCC(c3ccncc3)C2)c(C)c1 (stereo not drawn) [Example 273, 2-((1-(4-methoxy-2,6-dimethylphenylsulfonyl)pyrrolidin-2-yl)methoxy)-1-(3-(pyridin-4-yl)pyrrolidin-1-yl)ethanone]
inhibition at 10 µM [1]: 96%
inhibition at 10 µM [2]: 84.9%

Structure (SMILES): COc1cc(C)c(S(=O)(=O)N2CCCCC2COCC(=O)N2CCN(Cc3ccc(C)cc3)CC2)c(C)c1 (stereo not drawn) [Example 385, 2-((1-(4-methoxy-2,6-dimethylphenylsulfonyl)piperidin-2-yl)methoxy)-1-(4-(4-methylbenzyl)piperazin-1-yl)ethanone]
inhibition at 10 µM [1]: 101%
inhibition at 10 µM [2]: 99.5%

Structure (SMILES): O=C(COCC1CCCCN1S(=O)(=O)c1ccc(Cl)c(Cl)c1)NCC1CCCN(Cc2ccccc2)C1 (stereo not drawn) [Example 70, N-(1-benzyl-piperidin-3-ylmethyl)-2-[1-(3,4-dichloro-phenylsulfonyl)-piperidin-2-yl-methoxy]-acetamide]
inhibition at 10 µM [1]: 53.3%
inhibition at 10 µM [2]: 42.2%

Structure (SMILES): COc1cc(C)c(S(=O)(=O)N2CCCCC2COCC(=O)NCC2CCN(Cc3ccccc3)C2)c(C)c1 (stereo not drawn) [Example 414, N-((1-benzylpyrrolidin-3-yl)methyl)-2-((1-(4-methoxy-2,6-dimethylphenylsulfonyl)piperidin-2-yl)methoxy)acetamide]
inhibition at 10 µM [1]: 101%
inhibition at 10 µM [2]: 100%

Structure (SMILES): COc1cc(C)c(S(=O)(=O)N2CCCCC2COCC(=O)NCc2ccccc2N2CCN(C)CC2)c(C)c1 (stereo not drawn) [Example 432, 2-((1-(4-methoxy-2,6-dimethylphenylsulfonyl)piperidin-2-yl)methoxy)-N-(2-(4-methylpiperazin-1-yl)benzyl)acetamide]
inhibition at 10 µM [1]: 94%
inhibition at 10 µM [2]: 100%

Structure (SMILES): COc1cc(C)c(S(=O)(=O)N2CCCC2COCC(=O)N2CC[C@@H](N(C)C)C2)c(C)c1 (stereo partly drawn) [Example 476, 1-((R)-3-(dimethylamino)pyrrolidin-1-yl)-2-((1-(4-methoxy-2,6-dimethylphenylsulfonyl)pyrrolidin-2-yl)methoxy)ethanone]
inhibition at 10 µM [1]: 90.1%
inhibition at 10 µM [2]: 100%

Structure (SMILES): COc1cc(C)c(S(=O)(=O)N2CCCC2COCC(=O)NCC(c2ccc(C(F)(F)F)cc2)N2CCCC2)c(C)c1 (stereo not drawn) [Example 496, 2-((1-(4-methoxy-2,6-dimethylphenylsulfonyl)pyrrolidin-2-yl)methoxy)-N-(2-(pyrrolidin-1-yl)-2-(4-(trifluoromethyl)phenyl)ethyl)acetamide]
inhibition at 10 µM [1]: 68.2%
inhibition at 10 µM [2]: 103%

Structure (SMILES): COc1cc(C)c(S(=O)(=O)N2CCCCC2COCC(=O)N(C2CC2)C2CCN(Cc3ccccc3)CC2)c(C)c1 (stereo not drawn) [Example 342, N-(1-benzylpiperidin-4-yl)-N-cyclopropyl-2-((1-(4-methoxy-2,6-dimethylphenylsulfonyl)piperidin-2-yl)methoxy)acetamide]
inhibition at 10 µM [1]: 104%
inhibition at 10 µM [2]: 100%

Structure (SMILES): COc1cc(C)c(S(=O)(=O)N2CCCC2COCC(=O)N(C)C(CN2CCCC2)c2ccccc2)c(C)c1 (stereo not drawn) [Example 450, 2-((1-(4-methoxy-2,6-dimethylphenylsulfonyl)pyrrolidin-2-yl)methoxy)-N-methyl-N-(1-phenyl-2-(pyrrolidin-1-yl)ethyl)acetamide]
inhibition at 10 µM [1]: 87.4%
inhibition at 10 µM [2]: 99.7%

Structure (SMILES): O=C(COCC1CCCCN1S(=O)(=O)c1c(Cl)cc(Cl)cc1Cl)NCc1ccc(N2CCOCC2)cc1 (stereo not drawn) [Example 581, N-(4-morpholinobenzyl)-2-((1-(2,4,6-trichlorophenylsulfonyl)piperidin-2-yl)methoxy)acetamide]
inhibition at 10 µM [1]: 27.5%
inhibition at 10 µM [2]: 76.3%

Structure (SMILES): COc1cc(C)c(S(=O)(=O)N2CCCCC2COCC(=O)NC2CCN(Cc3ccccc3)C2)c(C)c1 (stereo not drawn) [Example 365, N-(1-benzylpyrrolidin-3-yl)-2-((1-(4-methoxy-2,6-dimethylphenylsulfonyl)piperidin-2-yl)methoxy)acetamide]
inhibition at 10 µM [1]: 55.6%
inhibition at 10 µM [2]: 99.8%

Structure (SMILES): CN(C)c1ccc(CNC(=O)COCC2CCCN2S(=O)(=O)c2c(Cl)cc(Cl)cc2Cl)cc1 (stereo not drawn) [Example 575, N-(4-(dimethylamino)benzyl)-2-((1-(2,4,6-trichlorophenylsulfonyl)pyrrolidin-2-yl)methoxy)acetamide]
inhibition at 10 µM [1]: 23.4%
inhibition at 10 µM [2]: 96.8%

Structure (SMILES): COc1cc(C)c(S(=O)(=O)N2CCCC2COCC(=O)N(C)C(CN2CCN(C)CC2)c2ccccc2)c(C)c1 (stereo not drawn) [Example 446, 2-((1-(4-methoxy-2,6-dimethylphenylsulfonyl)pyrrolidin-2-yl)methoxy)-N-methyl-N-(2-(4-methylpiperazin-1-yl)-1-phenylethyl)acetamide]
inhibition at 10 µM [1]: 95%
inhibition at 10 µM [2]: 99.8%

Structure (SMILES): COc1cc(C)c(S(=O)(=O)N2CCCCC2COCC(=O)N2CCN(c3ccncc3)CC2)c(C)c1 (stereo not drawn) [Example 147, 2-((1-(4-methoxy-2,6-dimethylphenylsulfonyl)piperidin-2-yl)methoxy)-1-(4-(pyridin-4-yl)piperazin-1-yl)ethanone]
inhibition at 10 µM [1]: 100%
inhibition at 10 µM [2]: 100%

Structure (SMILES): CN(C(=O)COCC1Cc2ccccc2CN1S(=O)(=O)c1ccc(Cl)cc1Cl)C1CCN(Cc2ccccc2)C1 (stereo not drawn) [Example 78, N-(1-benzyl-pyrrolidin-3-yl)-2-[2-(2,4-dichloro-phenylsulfonyl)-1,2,3,4-tetrahydro-isoquinolin-3-ylmethoxy]-N-methyl-acetamide]
inhibition at 10 µM [1]: 45.7%
inhibition at 10 µM [2]: 35.2%

Now from value to molecule:

inhibition at 10 µM [1]: 104%
inhibition at 10 µM [2]: 99.3%
Structure (SMILES): O=C(COCC1CCCCN1S(=O)(=O)c1c(Cl)cccc1Cl)N1CCC(N2CCCC2)CC1 (stereo not drawn) [Example 443, 2-((1-(2,6-dichlorophenylsulfonyl)piperidin-2-yl)methoxy)-1-(4-(pyrrolidin-1-yl)piperidin-1-yl)ethanone]

inhibition at 10 µM [1]: 96.7%
inhibition at 10 µM [2]: 103%
Structure (SMILES): Cc1ccc(CN2CCN(C(=O)COCC3CCCN3S(=O)(=O)c3c(Cl)cccc3Cl)CC2)cc1 (stereo not drawn) [Example 360, 2-((1-(2,6-dichlorophenylsulfonyl)pyrrolidin-2-yl)methoxy)-1-(4-(4-methylbenzyl)piperazin-1-yl)ethanone]

inhibition at 10 µM [1]: 77.5%
inhibition at 10 µM [2]: 41.6%
Structure (SMILES): O=C(COCC1CCCN1S(=O)(=O)c1c(Cl)cc(Cl)cc1Cl)NCCN1CCCC1 (stereo not drawn) [Example 339, N-(2-(pyrrolidin-1-yl)ethyl)-2-((1-(2,4,6-trichlorophenylsulfonyl)pyrrolidin-2-yl)methoxy)acetamide]

inhibition at 10 µM [1]: 103%
inhibition at 10 µM [2]: 92.9%
Structure (SMILES): O=C(COCC1CCCCN1S(=O)(=O)c1c(Cl)cccc1Cl)N1CCN(c2ccncc2)CC1 (stereo not drawn) [Example 283, 2-((1-(2,6-dichlorophenylsulfonyl)piperidin-2-yl)methoxy)-1-(4-(pyridin-4-yl)piperazin-1-yl)ethanone]

inhibition at 10 µM [1]: 99.2%
inhibition at 10 µM [2]: 101%
Structure (SMILES): Cc1ccccc1S(=O)(=O)N1CCCCC1COCC(=O)N1CCN(C2CCN(C)CC2)CC1 (stereo not drawn) [Example 159, 1-(4-(1-methylpiperidin-4-yl)piperazin-1-yl)-2-((1-(o-tolylsulfonyl)piperidin-2-yl)methoxy)ethanone dihydrochloride]

inhibition at 10 µM [1]: 103%
inhibition at 10 µM [2]: 100%
Structure (SMILES): O=C(COCC1CCCCN1S(=O)(=O)c1c(Cl)cccc1Cl)N1CCN(Cc2ccc(Br)cc2)CC1 (stereo not drawn) [Example 406, 1-(4-(4-bromobenzyl)piperazin-1-yl)-2-((1-(2,6-dichlorophenylsulfonyl)piperidin-2-yl)methoxy)ethanone]

inhibition at 10 µM [1]: 41.2%
inhibition at 10 µM [2]: 100%
Structure (SMILES): Cc1ccc(Cl)cc1N1CCN(C(=O)COCC2CCCCN2S(=O)(=O)c2c(Cl)cccc2Cl)CC1 (stereo not drawn) [Example 321, 1-(4-(5-chloro-2-methylphenyl)piperazin-1-yl)-2-((1-(2,6-dichlorophenylsulfonyl)piperidin-2-yl)methoxy)ethanone]

inhibition at 10 µM [1]: 104%
inhibition at 10 µM [2]: 102%
Structure (SMILES): CN1CCC(N2CCN(C(=O)COCC3CCCN3S(=O)(=O)c3c(Cl)cccc3Cl)CC2)CC1 (stereo not drawn) [Example 567, 2-((1-(2,6-dichlorophenylsulfonyl)pyrrolidin-2-yl)methoxy)-1-(4-(1-methylpiperidin-4-yl)piperazin-1-yl)ethanone]

inhibition at 10 µM [1]: 105%
inhibition at 10 µM [2]: 102%
Structure (SMILES): CN(C)CCCN1CCN(C(=O)COCC2CCCCN2S(=O)(=O)c2c(Cl)cccc2Cl)CC1 (stereo not drawn) [Example 564, 2-((1-(2,6-dichlorophenylsulfonyl)piperidin-2-yl)methoxy)-1-(4-(3-(dimethylamino)propyl)piperazin-1-yl)ethanone]
